Experimental data from patent publication US20230013363A1, “COMPOSITION FOR ENHANCING REPROGRAMMING EFFICIENCY FROM SOMATIC CELL TO INDUCED PLURIPOTENT STEM CELL, COMPRISING MTOR ACTIVATOR, AND METHOD FOR ENHANCING REPROGRAMMING EFFICIENCY BY USING SAME” (KOREA UNIVERSITY RESEARCH AND BUSINESS FOUNDATION, priority 2019, published 2023).

How the values were obtained:
[1] = system: primary human dermal fibroblasts (HDF); assay: Reprogramming efficiency of OSKM-transduced somatic cells to iPSCs (HDF); type: cell-based
Excerpt: (§1) In order to examine whether 4,6-di-4-morpholinyl-N-(4-nitrophenyl)-1,3,5-triazin-2-amine (MHY1485, CAS Number 326914-06-1), which is an mTOR (mammalian target of rapamycin) activator, has an influence on reprogramming efficiency, reprogramming factors (OCT4, SOX2, c-Myc, KLF4; OSKM) were transduced into primary umbilical vein endothelial cells (HUVEC, ATCC #PCS-100-010), primary human dermal fibroblasts (HDF, ATCC # PCS-201-012), and human placenta derived cells (HPC) via the Sendai virus (SeV) system as shown in FIG. 1a.
(§2) Twenty-four hours after transduction, the cells were cultured for one week in a placenta-derived cell conditioned medium (PCCM) or growth medium (GM). MHY1485 was added at a dose of 2 μg/mL once per 24 hours for three weeks. After one week of the culturing in a placenta-derived cell conditioned medium (PCCM) or growth medium (GM), the cells were induced to undergo reprogramming for two weeks in Matrigel-coated culture dishes containing mTeSR medium together with MHY1485 under a general pluripotent stem cell culturing condition.

[2] = system: human placenta derived cells (HPC); assay: Reprogramming efficiency of OSKM-transduced somatic cells to iPSCs (HPC); type: cell-based
Excerpt: as §1, §2

[3] = system: LC3a/b in HUVEC, HDF, and HPC cells; assay: Immunofluorescence assay of LC3a/b (autophagy) in somatic cells; type: cell-based, human; conditions: rapamycin as control
[4] = system: HUVEC, HDF, and HPC cells; assay: Reprogramming efficiency, HUVEC, HDF and HPC taken together (total of 9 dishes); type: cell-based, human
Excerpt: as §1, §2
HUVEC, HDF, and HPC cells were induced to undergo reprogramming by treatment with MHY1485 or in PCCM in three dishes for each cell line.

[5] = system: primary umbilical vein endothelial cells (HUVEC); assay: Reprogramming efficiency of OSKM-transduced somatic cells to iPSCs (HUVEC); type: cell-based, human
Excerpt: as §1, §2

[6] = system: CXCR2, mTOR, cMYC, LC3a/b, p62 in HUVEC, HDF, and HPC cells; assay: Western blot of protein expression in somatic cells with or without MHY1485; type: cell-based, human
Excerpt: as §1, §2
Western blotting identified the expression of CXCR2, mTOR, and cMYC. Autophagic flux activity was identified […].

[7] = GM + MHY1485 (2 μg/mL once per 24 hours for three weeks)
[8] = treatment with MHY1485 vs no treatment

Compound: O=[N+]([O-])c1ccc(Nc2nc(N3CCOCC3)nc(N3CCOCC3)n2)cc1 [MHY1485, 4,6-di-4-morpholinyl-N-(4-nitrophenyl)-1,3,5-triazin-2-amine]
- Reprogramming efficiency (%) [1, 7]: 0.04%
- Reprogramming efficiency (%) ([1]; hPCCM + MHY1485 (2 μg/mL)): 0.07%
- Reprogramming efficiency (%) [2, 7]: 0.35%
- Reprogramming efficiency (%) ([2]; hPCCM + MHY1485 (2 μg/mL)): 0.92%
- expression of LC3a/b (inhibition of autophagy) [3]: decreased
- Reprogramming efficiency (%) ([4]; GM + MHY1485, HUVEC, HDF, HPC, three dishes each, total of 9 dishes): 0.17%
- effect of increasing reprogramming efficiency, compared to the employment of PCCM medium ([4]; MHY1485 treatment vs PCCM medium, FIG. 4 and Table 2): significantly higher
- reprogramming efficiency compared to untreated cells ([4]; all the cells (HUVEC, HDF, HPC), FIGS. 2a to 2c): increased
- Reprogramming efficiency (%) [5, 7]: 0.13%
- Reprogramming efficiency (%) ([5]; hPCCM + MHY1485 (2 μg/mL)): 0.39%
- expression level of p62 (indicates inactivation of autophagic flux) ([6]; treatment with MHY1485): increased
- expression of CXCR2 [6, 8]: increased
- expression of LC3a/b [6, 8]: decreased
- expression of cMYC [6, 8]: increased
- expression of mTOR [6, 8]: increased
